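Exposure lasted 48 hours, with cells grown in 96-well plates and compounds tested at five concentrations. GI50 marks 50% less growth.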 Active and inactive are the calls of the source. No stated cut-off is given here; in the data, active = GI50 up to about 1.1 µM and inactive = higher.
Assays:
Assay in all cases: DTP human tumour cell line panel, 48 h
MOLT-4 = test system: MOLT-4
RPMI-8226 = test system: RPMI-8226
CAKI-1 = test system: CAKI-1
KM12 = test system: KM12
EKVX = test system: EKVX
SK-OV-3 = test system: SK-OV-3
SK-MEL-28 = test system: SK-MEL-28
OVCAR-5 = test system: OVCAR-5
M14 = test system: M14
SF-539 = test system: SF-539
SNB-19 = test system: SNB-19
HCC 2998 = test system: HCC 2998
A549 = test system: A549
ACHN = test system: ACHN
UO-31 = test system: UO-31
NCI-H226 = test system: NCI-H226

Measured: GI50

CCc1cccc(C(C)CC)c1NC(=O)CC1C(=O)Nc2ccccc2S1(=O)=O (stereo unspecified)
inactive: MOLT-4 11.8 µM | RPMI-8226 5.38 µM | CAKI-1 15.4 µM | KM12 11.5 µM | EKVX 7.05 µM | SK-OV-3 43.2 µM | SK-MEL-28 53.2 µM | OVCAR-5 70.1 µM | M14 41.4 µM | SF-539 21.5 µM | SNB-19 13.4 µM | HCC 2998 6.17 µM | A549 24.8 µM | ACHN 23.6 µM | UO-31 34 µM

O=C(c1ccncc1)n1nc(-c2ccccc2)c(/N=N/c2ccc([N+](=O)[O-])cc2)c1-c1ccccc1
inactive: MOLT-4 48.6 µM | RPMI-8226 28.4 µM | CAKI-1 78.5 µM | KM12 34.8 µM | EKVX 3.27 µM | SK-OV-3 94.8 µM | SK-MEL-28 > 100 µM | M14 92 µM | SF-539 89.5 µM | SNB-19 31.6 µM | HCC 2998 71.3 µM | A549 55.7 µM | UO-31 15.9 µM | NCI-H226 2.37 µM

O=C1CCC(Cl)=CC2CCCN12 (stereo unspecified)
inactive: MOLT-4 > 100 µM | RPMI-8226 > 100 µM | CAKI-1 > 100 µM | EKVX > 100 µM | SK-OV-3 > 100 µM | SK-MEL-28 > 100 µM | OVCAR-5 > 100 µM | M14 > 100 µM | SF-539 > 100 µM | SNB-19 > 100 µM | HCC 2998 > 100 µM | A549 > 100 µM | ACHN > 100 µM | UO-31 > 100 µM | NCI-H226 > 100 µM

COc1ccc(-c2c(C3=NCCCN3)nnn2-c2ccccc2)cc1
inactive: MOLT-4 > 100 µM | RPMI-8226 > 100 µM | CAKI-1 > 100 µM | KM12 > 100 µM | EKVX > 100 µM | SK-OV-3 > 100 µM | SK-MEL-28 > 100 µM | OVCAR-5 > 100 µM | M14 > 100 µM | SF-539 > 100 µM | SNB-19 > 100 µM | HCC 2998 > 100 µM | A549 > 100 µM | ACHN > 100 µM | UO-31 > 100 µM | NCI-H226 > 100 µM

C[Si](C)(C)/C=C/CN1C(=O)CCC1O (stereo unspecified)
inactive: MOLT-4 > 100 µM | RPMI-8226 > 100 µM | CAKI-1 > 100 µM | KM12 > 100 µM | EKVX > 100 µM | SK-OV-3 > 100 µM | SK-MEL-28 > 100 µM | OVCAR-5 > 100 µM | M14 > 100 µM | SF-539 > 100 µM | SNB-19 > 100 µM | HCC 2998 > 100 µM | A549 > 100 µM | ACHN > 100 µM | UO-31 > 100 µM | NCI-H226 > 100 µM

Nn1c(S)nnc1N/N=C1/C(=O)Nc2c(Cl)cc(Cl)cc21
inactive: MOLT-4 37.2 µM | RPMI-8226 > 100 µM | CAKI-1 69 µM | KM12 > 100 µM | EKVX > 100 µM | SK-OV-3 37.2 µM | OVCAR-5 > 100 µM | M14 > 100 µM | SF-539 > 100 µM | SNB-19 76 µM | HCC 2998 58.2 µM | A549 > 100 µM | ACHN 76.9 µM | UO-31 47.6 µM | NCI-H226 52.1 µM

Nc1ccc2nc(Nc3ccc(Cl)c(Cl)c3)cnc2c1
inactive: MOLT-4 1.6 µM | RPMI-8226 12.2 µM | CAKI-1 28.8 µM | KM12 15.6 µM | EKVX 26.8 µM | SK-MEL-28 17.6 µM | OVCAR-5 19.1 µM | M14 14.3 µM | SF-539 29.5 µM | SNB-19 17.3 µM | HCC 2998 16.1 µM | A549 15.7 µM | ACHN 22.2 µM | UO-31 11.9 µM | NCI-H226 15.5 µM

CC(=O)O/N=C(Cl)/C(Cl)=N/OC(C)=O
inactive: MOLT-4 > 100 µM | RPMI-8226 > 100 µM | CAKI-1 > 100 µM | KM12 > 100 µM | EKVX > 100 µM | SK-OV-3 > 100 µM | SK-MEL-28 > 100 µM | OVCAR-5 > 100 µM | M14 > 100 µM | SF-539 > 100 µM | SNB-19 > 100 µM | HCC 2998 > 100 µM | A549 > 100 µM | ACHN > 100 µM | UO-31 > 100 µM | NCI-H226 > 100 µM

C=CCNC(=S)OCCCCCCCCCC
inactive: MOLT-4 13.9 µM | RPMI-8226 18.8 µM | CAKI-1 19.1 µM | KM12 12.4 µM | EKVX 23.8 µM | SK-OV-3 24.3 µM | SK-MEL-28 23.6 µM | OVCAR-5 10.2 µM | M14 18.1 µM | SF-539 19 µM | SNB-19 30.8 µM | HCC 2998 17.7 µM | A549 25.3 µM | ACHN 18.5 µM | UO-31 12.3 µM

CC(=O)OCC1OC(N=[N+]=[N-])C(OC(C)=O)C(OC(C)=O)C1OC1OC(COC(C)=O)C(OC(C)=O)C(OC(C)=O)C1OC(C)=O (stereo unspecified)
inactive: MOLT-4 > 100 µM | RPMI-8226 > 100 µM | CAKI-1 > 100 µM | KM12 > 100 µM | EKVX > 100 µM | SK-OV-3 > 100 µM | SK-MEL-28 > 100 µM | OVCAR-5 > 100 µM | M14 > 100 µM | SF-539 58.6 µM | SNB-19 64.1 µM | HCC 2998 > 100 µM | A549 > 100 µM | ACHN > 100 µM | UO-31 > 100 µM

CN1CCc2c1nc(-c1ccccc1)c1c2N(C)CC1
inactive: MOLT-4 38.1 µM | RPMI-8226 39.6 µM | CAKI-1 28.1 µM | KM12 48.4 µM | EKVX > 100 µM | SK-OV-3 > 100 µM | OVCAR-5 > 100 µM | M14 44.8 µM | SF-539 60.8 µM | SNB-19 90.4 µM | HCC 2998 99.3 µM | A549 > 100 µM | ACHN > 100 µM | UO-31 14.7 µM

FC(F)(F)c1cccc2ns[s+]c12
inactive: MOLT-4 > 100 µM | CAKI-1 > 100 µM | KM12 > 100 µM | EKVX > 100 µM | SK-OV-3 > 100 µM | SK-MEL-28 > 100 µM | OVCAR-5 > 100 µM | M14 > 100 µM | SF-539 > 100 µM | SNB-19 > 100 µM | HCC 2998 > 100 µM | A549 > 100 µM | ACHN > 100 µM | UO-31 > 100 µM | NCI-H226 > 100 µM

CCCCCCCCCCCCCCCCCCCCCCC(=O)N[C@H]1CCc2cc(OC)c(OC)c(OC)c2-c2ccc(SC)c(=O)cc21
inactive: MOLT-4 27 µM | CAKI-1 46.7 µM | KM12 35.2 µM | EKVX 29.1 µM | SK-OV-3 7.19 µM | SK-MEL-28 84.5 µM | OVCAR-5 > 100 µM | M14 27.5 µM | SF-539 17.6 µM | SNB-19 39.1 µM | HCC 2998 25.5 µM | A549 26.4 µM | ACHN 63.8 µM | UO-31 48 µM | NCI-H226 2.52 µM

From ChEMBL document CHEMBL1201862, “PubChem BioAssay data set” (2004)
